Measured values as given in patent publication US20230277543A1, “COMPOSITIONS AND METHODS FOR TREATING DISEASES ASSOCIATED WITH ELEVATED ARGININE VASOPRESSIN LEVELS” (The United States Government As Represented By The …, priority 2022, published 2023).

Columns and labels:
[1] = test system: AVP gene; experiment: mRNA expression of AVP in primary cultures of rat hypothalamic cells; type: cell-based
Source text: Alternatively, the observed in vivo effect of ticagrelor in mice can be the due to a ticagrelor metabolite such as AR-C124910XX or AR-C133913XX, which may bind to hypothalamic cells at a site other than P2Y12 receptor and exert inhibitory effect on the production of AVP. […] Based on this observation on cultured hypothalamic cells and the unequivocal data obtained from the primary cultures of rat inner medullary collecting duct cells, the observed in vivo effect of ticagrelor on decreased AVP production is mediated by the action of one or both metabolites of ticagrelor (AR-C124910XX or AR-C133913XX).

[2] = major metabolite of ticagrelor; cited from earlier work
[3] = test system: rodent models of ADPKD; settings: by reducing cAMP production in the kidney; cited from earlier work
[4] = test system: rats; settings: administration to rats
Source text: The blockade of P2Y12 receptor by PSB-0739 on AVP gene expression in cultured rat hypothalamic cells was studied.

[5] = test system: mice; experiment: urinary concentrating ability and AVP production in mice; type: in vivo; settings: for urinary excretion of AVP: ticagrelor effect dose-dependent
Description: The effect of prasugrel on urinary concentration ability in mice was also tested and the same findings as clopidogrel were observed.
Both clopidogrel bisulfate and prasugrel belong to thienopyridine group of drugs, and thus both are prodrugs that need to be metabolized in the liver releasing their active metabolites that block the platelet P2Y12 receptor.

[6] = test system: rat inner medullary collecting duct cells; experiment: dDAVP-induced AQP2/AQP3 mRNA expression and cAMP production in primary cultures of rat inner medullary collecting duct cells; type: cell-based
Source text: In sum, ticagrelor binds to P2Y12 receptor in medullary collecting duct cells and enhances the effect on dDAVP on the mRNA expression of AQP2 and AQP3 water channels and cAMP production. Thus, the observed decreased urinary concentration in ticagrelor-treated mice was not because of the effect of ticagrelor on renal medullary collecting duct.

[7] = biological target: CYP3A4 (Homo sapiens, UniProt P08684); settings: cited from earlier work
Sequence of CYP3A4 (P08684 whole entry): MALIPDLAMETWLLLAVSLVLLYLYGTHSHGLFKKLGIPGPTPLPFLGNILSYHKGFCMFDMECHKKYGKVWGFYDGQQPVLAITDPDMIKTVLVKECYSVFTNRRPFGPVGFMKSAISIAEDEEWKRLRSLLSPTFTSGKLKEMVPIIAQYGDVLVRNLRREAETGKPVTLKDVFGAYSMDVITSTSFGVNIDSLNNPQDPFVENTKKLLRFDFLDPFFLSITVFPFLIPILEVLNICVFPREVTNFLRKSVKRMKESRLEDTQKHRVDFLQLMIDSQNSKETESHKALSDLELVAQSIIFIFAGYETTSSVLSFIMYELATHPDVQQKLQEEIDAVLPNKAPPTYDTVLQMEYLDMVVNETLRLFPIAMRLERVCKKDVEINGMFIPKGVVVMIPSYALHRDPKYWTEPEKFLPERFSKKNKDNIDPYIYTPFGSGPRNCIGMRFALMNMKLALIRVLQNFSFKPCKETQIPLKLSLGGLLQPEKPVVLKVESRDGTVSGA

[8] = biological target: vasopressin V2 receptor (Homo sapiens, UniProt P30518); settings: chronic blockade of vasopressin V2 receptor; cited from earlier work
Sequence of vasopressin V2 receptor (P30518 whole entry, species assumed): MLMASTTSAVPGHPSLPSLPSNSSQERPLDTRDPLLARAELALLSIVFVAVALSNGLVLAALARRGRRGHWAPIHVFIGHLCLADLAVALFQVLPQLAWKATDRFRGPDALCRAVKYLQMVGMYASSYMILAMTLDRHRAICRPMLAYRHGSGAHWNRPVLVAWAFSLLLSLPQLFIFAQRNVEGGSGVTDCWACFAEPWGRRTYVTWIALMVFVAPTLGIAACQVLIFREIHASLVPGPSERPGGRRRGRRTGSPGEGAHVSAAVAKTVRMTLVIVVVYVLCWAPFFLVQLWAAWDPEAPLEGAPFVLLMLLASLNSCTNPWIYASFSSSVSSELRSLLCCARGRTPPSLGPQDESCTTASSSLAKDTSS

[9] = test system: patients; settings: in a vast majority of patients; cited from earlier work

SMILES: Nc1ncnc2c1ncn2[C@@H]1O[C@H](COP(=O)(O)OP(=O)(O)O)[C@@H](O)[C@H]1O [ADP]
- effect of PSB-0739 on AVP gene expression ([1]; cultured rat hypothalamic cells, combination with PSB-0739, 24 hours): blocked

SMILES: CCCSc1nc(N[C@@H]2C[C@H]2c2ccc(F)c(F)c2)c2nnn([C@@H]3C[C@H](O)[C@@H](O)[C@H]3O)c2n1 [AR-C124910XX]
- where the metabolite is found [2]: mostly in plasma and feces

SMILES: CCCSc1nc(N)c2nnn([C@@H]3C[C@H](OCCO)[C@@H](O)[C@H]3O)c2n1 [AR-C133913XX]
- where the metabolite is found [2]: urine and feces

SMILES: Cc1ccccc1C(=O)Nc1ccc(C(=O)N2CCCC(N(C)C)c3ccccc32)cc1 (centres unmarked) [OPC-31260]
- cystogenesis [3]: consistently inhibited

SMILES: Nc1c(S(=O)(=O)O)cc(Nc2ccc(Nc3ccccc3)c(S(=O)(=O)O)c2)c2c1C(=O)c1ccccc1C2=O [PSB-0739]
- mRNA expression of the AVP gene ([1]; cultured rat hypothalamic cells, exposed for 24 hours, blockade of P2Y12 receptor): significantly increased

SMILES: COC(=O)[C@H](c1ccccc1Cl)N1CCc2sccc2C1 [clopidogrel]
- AVP production [4]: increase

SMILES: CC(=O)Oc1cc2c(s1)CCN(C(C(=O)C1CC1)c1ccccc1F)C2 (centres unmarked) [prasugrel]
- protein abundance of AQP2 in the kidney medulla ([5]; administered to mice): significantly increased
- urine concentrating ability ([5]; administered to mice): significantly increased
- urinary excretion of AVP ([5]; administered to mice): significantly increased

SMILES: CCCSc1nc(N[C@@H]2C[C@H]2c2ccc(F)c(F)c2)c2nnn([C@@H]3C[C@H](OCCO)[C@@H](O)[C@H]3O)c2n1 [ticagrelor]
- baseline mRNA expression of AVP ([1]; cultured hypothalamic cells): ~1.8 fold
- urine concentrating ability ([5]; administered to mice): dilution of urine
- urinary excretion of AVP ([5]; administered to mice): decreased
- urine flow ([5]; mice, dose-dependent): increased
- dDAVP-induced increase in cAMP production [6]: did not interfere
- mRNA expression of dDAVP-induced AQP2 water channel protein [6]: concentration-dependent increases
- mRNA expression of dDAVP-induced AQP3 water channel protein [6]: concentration-dependent increases

SMILES: Cc1ccccc1C(=O)Nc1ccc(C(=O)N2CCCC(O)c3cc(Cl)ccc32)c(C)c1 (centres unmarked) [tolvaptan]
- metabolizing enzyme system [7]: metabolized by the CYP3A4 system
- endogenous production of AVP [8]: increased
- adverse effects [9]: severe polyuria (loss of water in the urine), nocturia (frequent urination in the night), thirst and dry mouth
- cystogenesis [3]: consistently inhibited
